Results as given in ChEMBL document CHEMBL5108064, “Comparative Analysis of Small-Molecule LIMK1/2 Inhibitors: Chemical Synthesis, Biochemistry, and Cellular Activity” (J Med Chem, 2022).

Assay: Volume of distribution at steady state in Sprague-Dawley rat at 0.5 mg/kg, iv by LCMS/MS analysis
Type: ADME, organism-based
Settings: in vivo, read-out: Vdss

Cc1c[nH]c2ncnc(N3CCC(CN)(C(=O)Nc4cccc(OC(=O)N(C)C)c4)CC3)c12 [LX-7101]
Vd: 0.5 L/kg
